Measurements: patent publication US20030134859A1 (SANKYO COMPANY, LIMITED, priority 2000, published 2003)

Legend:
Rat white adipocytes = experiment: Stimulation of differentiation of the adipocytes (Oil Red O); type: cell-based; conditions: 100 nM test compound, 5 days, Oil Red O ABS550, control = 100%, blank = 0%, Table 7; for activity at 0.1 µM: Rattus norvegicus, Adipocyte, 120 h, read-out: Rate of Differentiation (%)
Summary of the method: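 Rat white adipocytes, 5,000 cells/well, cultured 5 days in differentiation-inducing medium with test compound at final 100 nM (0.1% DMSO). Cells fixed, stained with Oil Red O, dye extracted in DMSO and read at 550 nm; differentiation rate expressed relative to vehicle control (100%) and cell-free blank (0%).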

[1] = system: Mouse preadipocyte strain 3T3-L1; experiment: Inhibition of differentiation as an indication of acetic acid uptake; type: cell-based; conditions: control (0.01% dimethylsulfoxide) = 100%; for activity at 0.1 µM: Mus musculus, 3T3-L1, 0.1 μM test substance, read-out: Rate of Uptake (%) of [2-14C] acetic acid; for Rate of Uptake (%) of [2-14C] acetic acid: 0.1 μM test substance
Summary of the method: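 Confluent 3T3-L1 cells induced to differentiate for 4 days (insulin, IBMX, dexamethasone, 5% FBS) with test compound at 0.1 μM final or 0.01% DMSO, then 2 days in insulin maintenance medium, at 37 °C, 10% CO2. [2-14C]acetic acid uptake over 1 hr counted by scintillation; expressed as % of DMSO control.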

| Molecule | activity at 0.1 µM (Rat white adipocytes) | activity at 0.1 µM [1] | Rate of Differentiation (%) (Rat white adipocytes) | Rate of Uptake (%) of [2-14C] acetic acid [1] |
| --- | --- | --- | --- | --- |
| O=C(Nc1nc(-c2ccc(Cl)c(Cl)c2)cs1)c1cc([N+](=O)[O-])ccc1Cl [Example 43, N-[4-(3,4-Dichlorophenyl)thiazol-2-yl]-(2-chloro-5-nitrophenyl)carboxamide] | 118% | 56.7% | – | – |
| O=C(Nc1nccc2ccccc12)c1cc([N+](=O)[O-])ccc1Cl [Example 59, N-(Isoquinolin-1-yl)-(2-chloro-5-nitrophenyl)carboxamide] | 121% | 36.3% | – | – |
| O=C(Nc1nc(Cl)cc(Cl)n1)c1cc([N+](=O)[O-])ccc1Cl [Example 83, N-(4,6-Dichloropyrimidin-2-yl)-(2-chloro-5-nitrophenyl)carboxamide] | 114% | 75.6% | – | – |
| Cc1noc(NS(=O)(=O)c2ccc(NC(=O)c3cc([N+](=O)[O-])ccc3Cl)cc2)c1C [Example 104, N-[4-[(3,4-Dimethylisoxazol-6-yl)aminosulfonyl]phenyl]-(2-chloro-5-nitrophenyl)carboxamide] | 115% | 89.8% | – | – |
| O=C(Nc1ccc(N2CCCCC2)cc1)c1cc([N+](=O)[O-])ccc1Cl [Example 114, N-[4-(Piperidin-1-yl)phenyl]-(2-chloro-5-nitrophenyl)carboxamide] | 118% | 79% | – | – |
| Cc1ccc(C(=O)Nc2ccc(NC(=O)c3cc([N+](=O)[O-])ccc3Cl)cc2)cc1 [Example 121, N-[4-(4-Methylbenzoyl)aminophenyl]-(2-chloro-5-nitrophenyl)carboxamide] | 136% | 81% | – | – |
| Cc1ccc2nc(NC(=O)c3cc([N+](=O)[O-])ccc3Cl)sc2c1 [Example 141, N-(6-Methybenzothiazol-2-yl)-(2-chloro-5-nitrophenyl)carboxamide] | – | – | 133.2% | 78.7% |
| CCc1ccc(S(=O)(=O)Nc2ccc(NC(=O)c3cc([N+](=O)[O-])ccc3Cl)cc2)cc1 [Example 150, N-[4-(4-Ethylbenzenesulfonylamino)phenyl]-(2-chloro-5-nitrophenyl)carboxamide] | 137% | 82.9% | – | – |
| O=C(Nc1ccc(S(=O)(=O)N2CCCCC2)cc1)c1cc([N+](=O)[O-])ccc1Cl [Example 151, N-[4-(Piperidyisulfonyl)phenyl]-(2-chloro-5-nitrophenyl)carboxamide] | 118% | 62.3% | – | – |
| O=C(Nc1ccc(S(=O)(=O)N2CCOCC2)cc1)c1cc([N+](=O)[O-])ccc1Cl [Example 153, N-[4-(Morpholin-4-ylsulfonyl)phenyl]-(2-chloro-5-nitrophenyl)carboxamide] | 110% | 70.2% | – | – |
| N-[3-(Pyrrolidinylsulfonyl)phenyl]-(2-chloro-5-nitrophenyl)carboxamide [Example 154] | – | – | 123.8% | 67.4% |
